In series [1] the test system is Wistar rats. The experiment in a line: ABR threshold shifts, cisplatin-induced hearing loss. It is filed as in vivo, rat. The protocol:
Adult male Wistar rats (200-350 g) (from Envigo) were used for this study. Rats were housed in a temperature controlled room with a twelve hour light/dark cycle. They had free access to commercial food and water provided by the SIU Laboratory Animal Care facility.
Prior to experiments, rats were anesthetized with ketamine HCl/xylazine mixture (24.6/3 mg/kg) and then placed in a sound-attenuation chamber (Industrial Acoustic Company, Inc.). Body temperature of the rats was maintained at 37° C. with an animal blanket system. Pretreatment auditory brainstem responses (ABRs) was performed using an IHS-High-frequency System (Intelligent Hearing Systems, Miami, FL). The rats were exposed to acoustic stimuli via HIS transducers that were directly placed at the entrance of the ear canal. ABR thresholds were obtained for 5 ms duration tone bursts at 8, 16 and 32 kHz at a rate of 50/s. Thresholds were determined by visually produced lowest intensity evoked potentials (EP) that progressed in 10 dB steps. Evoked potentials (Eps) were amplified to 200,000×, and were band pass filtered (100-3000 Hz) and averaged over 1024 sweeps [Mukherjea et al., 2010].
At the end of auditory testing, the anesthetized animals were decapitated and the cochlea harvested. The SIU Laboratory Animal Care and Use Committee approved all animal procedures.
Male Wistar rats were anesthetized using ketamine/xylazine cocktail. The tympanic membrane was punctured as described in [Mukherjea et al., 2010].

In series [2] the test system is UB/OC1 cells. The experiment in a line: Bax/Bcl-2 ratio in UB/OC1 cells. It is filed as cell-based, mouse.
For series [3], the system named is UMSCC-10b cells. Description: SCID mouse xenograft model. Format: in vivo. The protocol: SCID mice (from Envigo, 5-6 weeks of age) were injected subcutaneously with 1.5×10^6 mycoplasma-free UMSCC 10B cells in one flank. […] At the time of each treatment, tumor volumes were calculated based on the formula: volume=width2×(length/2) [Jajoo et al.]. Mice were killed 24 h after the eleventh treatment. All procedures were performed in accordance with relevant guidelines and regulations of SIU School of Medicine.

Series [4] has as its system Wistar rats. The experiment in a line: ABR threshold shifts, noise induced hearing loss (NIHL). It is filed as in vivo, rat. The protocol:
Male Wistar rats (150-250 gm) were used for this study under an animal care protocol approved by the Laboratory and Animal Care and Use Committee (SIU School of Medicine). Pre-treatment ABRs were performed. Animals were then treated according to the experimental paradigm. Prevention strategy: consisted of administration of ETA either intra-tympanic ally (IT) (250 μg/50 μl) or subcutaneously (sc) (3 mg/kg) or PBS (IT-50 μl or sc-1 ml) either 3 days or 7 days prior to noise exposure (NE).
Animals were exposed to noise (NE), and then provided ETA treatments either IT or SC at either 2 h or 24 h post noise injury. Post treatment ABR thresholds were determined at 21 days post noise exposure and cochleae were excised for morphological, molecular and biochemical studies. Cochleae used for RNA preparations were flushed immediately with RNA later and kept in RNA later for 24 h at 4° C. Those used for immunohistochemical studies were perfused and fixed with 4% paraformaldehyde, while those used for Scanning electron microscopy (SEM) were perfused and fixed with 2.5% glutaraldehyde. Cochleae used for whole mounts were decalcified for 7-10 days in 100 mM EDTA at room temperature.
Male Wistar rats were exposed to octave band noise at 122 dB centered at 16 kHz for 1 h under isofluorane anesthesia, with the 3 inch silicon tubes attached to the high frequency transducer resting in the middle ear cavity. This exposure typically results in a 30-50 dB temporary threshold shift (measured as an immediate pre-to-post noise exposure shift in ABR thresholds) across all frequencies; with slightly more elevation at those frequencies around 16 kHz and 20-40 dB permanent threshold shift measured at 21 days post noise exposure at all frequencies. Acoustic stimuli are calibrated using a cloth model rat and a Bruel & Kjaer Pulse System with a ½ inch free-field microphone (B&K model 4191). Baseline noise levels in the test chamber (with background test noise turned off) are typically measured below 20 dB SPL in the 4-40 kHz range.
Pre-treatment ABR thresholds were determined using the high frequency Intelligent Hearing Systems (IHS) on naive rats prior to any treatment or noise exposure for each ear. Animals were tested with a stimulus intensity series that was initiated at 0 dB sound pressure level (SPL) and reached a maximum at 90 dB SPL. The stimulus intensity levels were increased in 10 dB increments, and the evoked ABR waveforms were observed on a video monitor. The auditory stimuli included tone bursts at 8, 16, and 32 kHz with a 10 msec plateau and a 1 msec rise/fall time presented at a rate of 5/sec. Threshold was defined as the lowest intensity capable of evoking a reproducible, visually detectable response with two distinct waveforms and minimum amplitude of 0.5 μV.
Preconditioning of the TRPV1 receptor in the rat cochlea by oral administration of capsaicin is shown here to protect from NIHL. Male Wistar rats weighing 200-250 gms were used. ABRs from naïve rats were recorded. Rats were then treated with oral phosphate buffered saline (PBS—1 ml) or capsaicin (1 ml of 20 mg/ml) starting 24 hrs prior to NE, on the day of NE, and 24 hrs post NE. The final ABRs were recorded 21 days post NE. Cochleae were collected for various biochemical tests and immunohistochemistry. At least 6 animals were used per treatment group. NE caused an ABR threshold shift of 21.6±1.7, 35.5±1.9 and 43.9±2.3 dB threshold shift at 8, 16 and 32 kHz respectively. Oral capsaicin treatment completely protects from NIHL (3.9±1.4, 6.1±1.8 and 8.9±2.1 dB threshold shift at 8, 16 and 32 kHz respectively), there is no significant change in ABR threshold shift compared to control. […] Statistical significance was calculated using one way ANOVA with Tukey's post-hoc analyses, p<0.05 (FIG. 16.A.).
ABR measurements were conducted in naïve male Wistar rats. […]

Setting [5] is: oral capsaicin 24 hrs prior, day of and 24 hrs post NE, 21 days post NE.

For the molecule `COc1cc(CNC(=O)CCCC/C=C/C(C)C)ccc1O` [capsaicin, 8-methyl-N-vanillyl-trans-6-nonenamide], the “ABR threshold shifts produced by cisplatin” value in series [1] (TT-capsaicin 50 μl of 0.1 μM 24 h prior to cisplatin 11 mg/kg ip, 72 h, 8, 16 and 32 kHz) was “significantly reduced ABR threshold shifts”. In addition, the ABR thresholds entry in series [1] (TT-capsaicin alone, 72 h, vs TT vehicle) is listed as “did not significantly alter ABR thresholds”. The ABR threshold result in series [1] (capsaicin alone by trans-tympanic injection or oral gavage, 72 h) is listed as “did not significantly alter ABR threshold”. Further, the “protection against cisplatin-induced ABR threshold shifts” value in series [1] (oral capsaicin 5 mg/kg 24 h prior to cisplatin) is reported as “did not protect”; in series [1] (oral capsaicin 10 or 20 mg/kg 24 h prior to cisplatin), “Significant protection”. For the same molecule, the “cisplatin ABR threshold shift” value in series [1] (oral capsaicin 20 mg/kg 24 h prior to cisplatin (FIG. 11.B)) is listed as “abrogated”. The Bax/Bcl-2 ratios in series [2] worked out at 1.1±0.2. The “cisplatin tumor growth curves” value in series [3] (oral capsaicin 0.5 mg/kg + cisplatin 2 mg/kg ip) was “shifted the cisplatin tumor growth curves to the right”. Moreover, the “tumor growth (volume, size, weight)” value in series [3] (single agent: cisplatin 2 mg/kg ip or oral capsaicin 0.5 mg/kg) was “decreased tumor size and weight, but not significantly”. For the same molecule, the “Wave 1 amplitude versus sound intensity” value in series [4] (capsaicin 5 mg/kg oral, ETA 1 mg/kg, noise exposure (FIG. 18.B)) was “partial restoration”. The NE threshold shift result in series [4] (intra-tympanic or oral capsaicin, 21 days after NE) is reported as “abrogated”. Further, the “ABR threshold shift at 8 kHz” value in series [4] (setting [5]) was 3.9±1.4 dB; in series [4] (oral capsaicin alone, no NE) it was 1±1.1 dB. Further, the “ABR threshold shift at 16 kHz” value in series [4] (setting [5]) amounted to 6.1±1.8 dB; in series [4] (oral capsaicin alone, no NE) it was 1±1.1 dB. Further, the “ABR threshold shift at 32 kHz” value in series [4] (setting [5]) worked out at 8.9±2.1 dB; in series [4] (oral capsaicin alone, no NE) it was 3±1.6 dB.

Values taken from patent US12162935B2, “Regimens, compositions and methods with capsaicin and TNF-alpha inhibitor” (priority 2018, dated 2024).
